Measured values taken from BigSolDB 2.1.

CCCCCCCC[n+]1ccn(C)c1.O=[N+]([O-])[O-]
solubility (mole fraction)
Settings	in benzene	in cyclohexane	in m-xylene	in n-heptane	in n-hexane	in n-octane	in n-pentane	in o-xylene	in p-xylene	in toluene
278.15 K	–	–	–	–	–	–	0.000687	–	–	–
283.15 K	–	–	–	–	–	–	0.000816	–	–	–
288.15 K	–	–	–	–	0.000683	–	0.000955	–	–	–
293.15 K	–	0.000775	–	0.000342	0.00078	0.000355	0.0011	–	–	–
298.15 K	0.000303	0.000901	0.00526	0.000407	0.000919	0.000411	0.00127	0.005	0.00308	0.000371
303.15 K	0.000357	0.00106	0.00566	0.000488	0.00113	0.000502	0.00149	0.00529	0.00331	0.00043
308.15 K	0.00041	0.00124	0.00605	0.000586	0.00128	0.000605	–	0.00558	0.00358	0.0005
313.15 K	0.00049	0.00146	0.00645	0.000728	0.00162	0.000733	–	0.00587	0.00383	0.000598
318.15 K	0.000572	0.00169	0.00685	0.000856	0.00184	0.000866	–	0.00616	0.00408	0.000699
323.15 K	0.000661	0.00191	0.00725	0.00101	0.00206	0.00101	–	0.00646	0.00431	0.000806
328.15 K	0.000751	0.00212	0.00765	0.00119	0.00232	0.00123	–	0.00675	0.00458	0.000892
333.15 K	0.00086	0.00244	0.00805	0.00143	0.00271	0.00145	–	0.00704	0.00483	0.00103
338.15 K	0.000981	0.00275	0.00845	0.00166	–	0.00168	–	0.00733	0.00508	0.00117
343.15 K	0.00111	–	0.00885	0.00193	–	0.00198	–	0.00762	0.00533	0.00133
